Source: PMC9525908, “α-Crystallin chaperone mimetic drugs inhibit lens γ-crystallin aggregation: Potential role for cataract prevention” (The Journal of Biological Chemistry, 2022)
Substitutions are numbered along the chain they refer to.

Assays:
[1] = molecular target: T1, R58H mutant of HγD (Homo sapiens, UniProt P07320, R59H); test: End-point turbidity assay (72 °C, 20 min) of R58H mutant; format: biochemical; conditions: 500 μM drug, read-out: Inhibition of aggregation (%) R58H
T1 construct: made in house; host or cells: E. coli BL21(DE3) pLysS
T1 sequence (P07320 1-174 R59H): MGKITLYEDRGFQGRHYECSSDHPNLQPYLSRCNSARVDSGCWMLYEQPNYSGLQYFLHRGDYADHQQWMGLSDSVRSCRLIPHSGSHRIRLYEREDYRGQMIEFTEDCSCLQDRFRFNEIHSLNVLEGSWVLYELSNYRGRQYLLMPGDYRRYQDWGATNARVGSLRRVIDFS
Protocol: (§1) Aggregation kinetics assays at 600 nm in the presence of varying concentrations (0, 100, 200, 300, 400, and 500 μM) of our selected drugs were also performed on mutants of HγD (W43R, W42Q, R14C, and R58H) and MγS (F9S) at a concentration of 1 mg/ml in 50 mM K3PO4 buffer (pH 7.2) in a total volume of 100 μl. WT-HγD and WT-MγS crystallin served as controls for their respective mutant versions. For W43R mutant, aggregation assay was done at 42 °C for a total of 200 min. Absorbance was monitored every 10 min. For R14C and R58H mutants, end-point turbidity assay was done at 72 °C for 20 min. […] All the experiments were run in duplicates or triplicates.

[2] = molecular target: T2, HγD (Homo sapiens, UniProt P07320); test: Steady-state tryptophan fluorescence quenching, HγD; format: binding
T2 construct: made in house; host or cells: E. coli BL21(DE3) pLysS, pET3d vector
T2 sequence (P07320 1-174): T1 sequence (P07320 1-174 R59H) with H59R
Protocol: Tryptophan fluorescence can be used for studying conformational changes resulting from protein–drug interactions ([44]). Fluorescence quenching of aromatic fluorophores in HγD and MγS by drugs C and G at three different temperatures (25, 30, and 37 °C) was studied in the presence of varying concentrations of drug C and G (0–250 μM). As shown in Figs. S5A and S6A, both HγD and MγS have a strong emission peak at 330 nm when excited at 295 nm. In both cases, quenching occurs with gradual addition of C and G at all three temperatures. Overall, quenching of Trp fluorescence emission is at highest at 25 °C (Figs. S5A and S6A) followed by 30 °C and lowest at 37 °C. […] The slope of plot Fo/F versus [Q] gives Ksv (Figs. S5B and S6B), whereas Kb is obtained from intercept of plot log (Fo/F − 1) versus log[Q] (Figs. S5C and S6C). […] For drug M, Kb values are of the order 10^2 M^−1 only. Fluorescence quenching can be either because of random collision between the molecules (dynamic interaction) or because of actual affinity between a protein pocket and drug (static interaction). Dynamic interactions are weaker and nonspecific in nature, whereas static interactions are stronger and more specific ([47]). For more information on the type of interaction, Kq was calculated and compared with the standard value of 2 × 10^10 M^−1s^−1, which is the maximum scatter collision quenching constant of various quenchers with biopolymers ([48]). […] Furthermore, the differential response of Ksv toward temperature change also clarifies the type of quenching. In static quenching, Ksv decreases with an increase in temperature because of the formation of complex with protein, which undergoes dissociation on increasing temperature.
To gauge the strength of the major forces involved in drug–protein complex formation, change in free energy was calculated using Gibbs–Helmholtz equation (Equation 3).(3) ΔG=-RTlnKb ([50]) where, R is gas constant and its value is […], T is absolute temperature (Kelvin) and Kb is binding constant whose value is already calculated using Equation 2. […] Free energy changes are negative at all three temperatures, being maximal at 25 °C. For C, G, and M interaction with HγD, ΔG values were −6.4, −7.9, and −1.9 kcal/mol (at 25 °C), that is, similar to those obtained by molecular docking as described later. These values also reflect the fact that drug M had the least protective effect on unfolding or aggregation of various γ-crystallins (Figs. 2 and S4).
All the steady-state fluorescence measurements were recorded on Fluoromax Spectrofluorometer (Horiba Scientific). For fluorescence quenching measurements, 10 μM of both HγD and MγS crystallins were titrated with varying concentrations of drugs C, G, and M (0–250 μM) at 25, 30, and 37 °C. These samples were excited at 295 nm, and the fluorescence emission was collected from 310 to 410 nm.

[3] = molecular target: T3, WT-HγD crystallin (Homo sapiens, UniProt P07320); test: Dynamic light scattering of thermally stressed WT-HγD; format: biochemical; conditions: for Size (radius) of aggregates: 50 μM WT-HγD, 400 μM drug, 72 °C 20 min, 7261 nm without drugs
T3 construct: made in house; host or cells: E. coli BL21(DE3) pLysS, pET3d vector
T3 sequence (P07320 1-174): T1 sequence (P07320 1-174 R59H) with H59R
Protocol: Efficacy of our selected drugs in preventing the formation of protein aggregates was measured by DLS. Measurements were performed on a Wyatt DynaPro Nanostar. For DLS temperature scan experiment, pure and filtered protein samples (1 mg/ml in 10 mM sodium phosphate buffer, pH 7.2) with and without drugs (400 μM) were analyzed by DLS over a temperature range of 30 to 90 °C. Multiple scans were run for every data point, and the results represent average of individual scans. DLS spectra were also recorded for the samples at the end point of turbidity assay.

[4] = molecular target: T4, W43R mutant of HγD (Homo sapiens, UniProt P07320, W43R); test: Kinetic turbidity assay at 42 °C of W43R mutant; format: biochemical; conditions: for Effect on aggregation of W43R mutant: 0–500 μM, 42 °C for 200 min, G at 400 and 500 μM; for inhibition at 500 µM: 500 μM drug, 42 °C, 200 min, read-out: Inhibition of aggregation (%) W43R
T4 construct: made in house; host or cells: E. coli BL21(DE3) pLysS
T4 sequence (P07320 1-174 W43R): T1 sequence (P07320 1-174 R59H) with W43R, H59R
Protocol: as §1

[5] = WT-HγD, end point of thermal stress 72 °C 20 min

| Percent Mass Peak 2 [3, 5] [%] | Radius (nm) Peak 2 [3, 5] [nm] | Structure (SMILES) | inhibition at 500 µM [1] [%] | KSV ([2]; 25 °C) [M^−1 ×10^3] | Kq ([2]; 25 °C) [M^−1 s^−1 ×10^12] | ΔG ([2]; 25 °C) [kcalM^−1] | KSV ([2]; 30 °C) [M^−1 ×10^3] | Kq ([2]; 30 °C) [M^−1 s^−1 ×10^12] | ΔG ([2]; 30 °C) [kcalM^−1] | KSV ([2]; 37 °C) [M^−1 ×10^3] | Kq ([2]; 37 °C) [M^−1 s^−1 ×10^12] | ΔG ([2]; 37 °C) [kcalM^−1] | ΔG ([2]; at 25 °C) [kcal/mol] | Size (radius) of aggregates [3] [nm] | Percent Mass Peak 1 [3, 5] [%] | Radius (nm) Peak 1 [3, 5] [nm] | Effect on aggregation of W43R mutant [4] | inhibition at 500 µM [4] [%] |
| --- | --- | --- | --- | --- | --- | --- | --- | --- | --- | --- | --- | --- | --- | --- | --- | --- | --- | --- |
|  |  | Cc1cc(C(C#N)c2ccc(Cl)cc2)c(Cl)cc1NC(=O)c1cc(I)cc(I)c1O (stereo not shown) [drug C, Closantel] | 55 | 4.215 | 0.739 | −6.4 | 4.197 | 0.736 | −6.2 | 4.107 | 0.72 | −5.9 | -6.4 | 30.5 | 100 | 30.5 | worsened the aggregation | -34 |
|  |  | CC(C)=CCC[C@]1(C)C=Cc2c(O)c3c(c(CC=C(C)C)c2O1)O[C@]12C(=C[C@@H]4C[C@H]1C(C)(C)O[C@@]2(C/C=C(/C)C(=O)O)C4=O)C3=O [drug G, Gambogic acid] | 83 | 10.252 | 1.79 | −7.9 | 8.440 | 1.47 | −7.7 | 7.880 | 1.38 | −7.2 | -7.9 | 84.9 | 100 | 84.9 | protected the mutant against aggregation | 52 |
| 87.3 | 568.5 | O=C(O)CCCCCCCCCCCC[C@@H]1C=CCC1 [drug M, Chaulmoogric acid] | 44 | 0.288 | 0.051 | −1.9 | 0.507 | 0.08 | −2.5 | 0.680 |  | −2.6 | -1.9 | 569 | 12.7 | 10.9 | no effect | 14 |
